Molecules are shown by their SMILES.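 1) Cells in 96-well plates. 2) Compound, 48 h, 5 concentrations. 3) Linear interpolation between surrounding doses. 4) Unreached endpoint = highest concentration. TGI: total growth inhibition.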

Holding throughout (assay): growth of human tumour cells (NCI), 48 h
The test system of assay [1] is HT29 colon.
The subject of assay [2] is MCF7 breast.
The subject of assay [3] is MDA-N.
For assay [4], the system named is NCI-H522 lung.
Assay [5] concerns EKVX NSCLC.
Assay [6] concerns SR leukemia.
In assay [7] the test system is SNB-75 CNS.
The test system of assay [8] is SK-MEL-28 melanoma.
Assay [9] relates to ACHN renal.
The subject of assay [10] is SN12C renal.
In assay [11] the test system is T-47D breast.
Assay [12] deals with HCT-15 colon.
The test system of assay [13] is SK-MEL-5 melanoma.
Assay [14] concerns HOP-62 NSCLC.
For assay [15], the system named is NCI-H460 lung.
Assay [16] has as its system A498 renal.
Assay [17] has as its system CCRF-CEM leukemia.
The test system of assay [18] is MDA-MB-231 breast.
Assay [19] relates to MDA-MB-435.
Assay [20] concerns UACC-62 melanoma.

Consider `Cc1cc(S(=O)(=O)Nc2nc(N)nc(N3CCOCC3)n2)c(SCC(=O)O)cc1Cl`, for which the TGI in [1], in [2], in [3], in assay [4], in [5] and in assay [6] was more than 10 µM throughout. Moreover, the TGI in assay [7], in assay [8], in [9], in [10], in [11] and in [12] was more than 10 µM each time. The TGI in [13], in [14], in assay [15], in [16] and in assay [17] was more than 10 µM throughout.

On to `NC(C(F)(F)F)(C(F)(F)F)P(=O)(c1ccccc1)c1ccccc1`, for which the TGI in assay [18], in [1], in assay [2], in assay [3], in assay [5] and in [6] was more than 100 µM each time. Further, the TGI in assay [7], in assay [19], in assay [8], in [9], in assay [10] and in assay [11] was more than 100 µM throughout. Further, the TGI in assay [12], in [13], in assay [14], in assay [15], in [20] and in assay [17] was more than 100 µM each time.

`c1ccc2[nH]c3[nH]c4[nH]c5ccccc5[nH]c4[nH]c3[nH]c2c1`: the TGI in assay [18], in assay [1], in [2], in assay [3], in [4] and in assay [5] was more than 100 µM each time. Further, the TGI in assay [6] was more than 100 µM; in [7], 53.4 µM; in assay [19] it was more than 100 µM; in assay [8], more than 100 µM; in assay [9], more than 100 µM; in [10], more than 100 µM. Also, the TGI in [12], in assay [13], in [14], in assay [15], in assay [16] and in assay [20] was more than 100 µM each time. The TGI in assay [17] is more than 100 µM.

As for `COc1cccc(-c2cccc(SC)n2)n1`, the TGI in [18] is more than 100 µM; in assay [1], 93.8 µM; in [2] it was more than 100 µM; in assay [3], more than 100 µM; in [5] it was 97.3 µM; in assay [6], 55.5 µM. Moreover, the TGI in assay [7] was more than 100 µM; in assay [19], 86.8 µM; in assay [8], more than 100 µM; in assay [9] it was more than 100 µM; in assay [10] it was more than 100 µM; in [11] it was 75.1 µM. In addition, the TGI was more than 100 µM in [12]; 44 µM in assay [13]; more than 100 µM in assay [14]; more than 100 µM in assay [15]; more than 100 µM in [20]; 41.5 µM in [17].

For `C=CCNC(=O)/C(Cc1cc(Br)c(OC)c(Br)c1O)=N\O`, the TGI in assay [18] was 32.6 µM; in assay [1], 35 µM; in assay [2], more than 100 µM; in assay [3], 1.07 µM; in assay [4] it was 6.07 µM; in [5], 25.2 µM. Also, the TGI in assay [6] was more than 100 µM; in assay [19], 2.69 µM; in assay [8], 31 µM; in [9], more than 100 µM; in assay [12], 21.7 µM; in assay [13], 11.6 µM. Moreover, the TGI in [14] is 22.9 µM; in assay [15], 15.9 µM; in assay [16] it was 46.7 µM; in [20], 34.8 µM.

On to `C/C(=N\NS(=O)(=O)c1ccc(C)cc1)C(CN(C)C)C(c1ccccc1)c1c(O)c2ccccc2oc1=O` (centres undefined), for which the TGI in assay [18], in [1], in assay [2], in assay [3], in assay [4] and in assay [5] was more than 100 µM throughout. The TGI in assay [6] is more than 100 µM; in assay [7], more than 84.7 µM; in assay [19], more than 100 µM; in assay [8] it was more than 100 µM; in [9] it was more than 100 µM; in assay [10], more than 100 µM. In addition, the TGI in assay [12], in [13], in [14], in [15], in assay [16] and in assay [20] was more than 100 µM throughout. The TGI in assay [17] is more than 100 µM.

`CC(NC(=O)/C(C#N)=C/c1ccc2[nH]ccc2c1)c1ccccc1` (centres undefined): the TGI in [1] was found to be 31.6 µM; in assay [2], 56 µM; in [3], 31.4 µM; in [4] it was 25.7 µM; in assay [5] it was 50.4 µM; in assay [6], 83.7 µM. For the same compound, the TGI in assay [7] is 60.5 µM; in [19] it was 31.1 µM; in [8] it was 36.9 µM; in assay [9], more than 64.9 µM; in assay [10] it was 35 µM; in [11], 51 µM. Moreover, the TGI in assay [12] came to 27.6 µM; in [13], 33 µM; in [14], 33.4 µM; in assay [15] it was 34.9 µM; in [16] it was 32.1 µM; in assay [20], 31.8 µM. In assay [17], this compound registered a TGI of 45.8 µM.

Regarding `C=C(C)[C@@H]1CC[C@@H](C)[C@](O)([C@@H]2C[C@@H]([C@H](COC(=O)c3ccccc3)OC(=O)c3ccccc3)OC2=O)C1`, the TGI in assay [18], in assay [1], in assay [2], in assay [3], in [4] and in [5] was more than 100 µM throughout. In addition, the TGI in assay [6], in assay [7], in assay [19], in [8], in assay [9] and in assay [10] was more than 100 µM in each case. Further, the TGI in assay [12], in [13], in assay [14], in assay [15], in [16] and in assay [20] was more than 100 µM throughout. In addition, the TGI in [17] was more than 100 µM.

Regarding `COC(=O)/C(C#N)=C1\NC(=O)CC(c2ccccc2)C1C#N` (centres undefined), the TGI in [18], in assay [1], in assay [2], in assay [3], in [4] and in [5] was more than 100 µM throughout. Besides, the TGI in assay [6], in [7], in assay [8], in assay [9], in assay [10] and in [11] was more than 100 µM throughout. Moreover, the TGI in assay [12], in assay [13], in [14], in assay [15], in [20] and in assay [17] was more than 100 µM throughout.

As to `CC1(C)C=[N+]([O-])C(C)(C)N1`, the TGI in assay [18], in [1], in assay [2], in assay [3], in assay [5] and in assay [6] was more than 100 µM each time. In addition, the TGI in assay [7], in assay [19], in assay [8], in [9], in [10] and in assay [11] was more than 100 µM in each case. Besides, the TGI in assay [12], in assay [13], in assay [14], in [15], in assay [20] and in [17] was more than 100 µM in each case.

For the compound `C/C(=N\NC(=O)/C(C#N)=C\c1ccc(N(CCC#N)CCC#N)cc1)c1ccccc1`, the TGI in assay [18], in assay [1], in assay [2], in [3], in assay [4] and in assay [5] was more than 10 µM in each case. The TGI in assay [6], in assay [7], in assay [19], in [8], in assay [9] and in [10] was more than 10 µM in each case. Further, the TGI in [11], in assay [12], in assay [13], in assay [14], in assay [15] and in assay [20] was more than 10 µM throughout.

As to `COC(C/C(=C/CO[Si](C(C)C)(C(C)C)C(C)C)C(=O)Nc1ccccc1I)OC`, the TGI is 46 µM in [18]; more than 100 µM in assay [1]; more than 100 µM in assay [3]; 6.05 µM in assay [4]; more than 100 µM in [6]; more than 100 µM in assay [7]. The TGI was more than 100 µM in [19]; more than 100 µM in assay [8]; more than 100 µM in assay [9]; more than 100 µM in assay [10]; more than 100 µM in [11]; 71.1 µM in [12]. The TGI in assay [13], in assay [14], in [15], in assay [16], in [20] and in assay [17] was more than 100 µM in each case.

On to `CN(C)c1ncnc2c1ncn2C1C=CC(COS(N)(=O)=O)C1` (centres undefined), for which the TGI in assay [1], in assay [2], in [3], in [4], in assay [5] and in [6] was more than 100 µM in each case. In addition, the TGI in assay [7], in assay [19], in assay [8], in assay [9], in [10] and in assay [11] was more than 100 µM in each case. Besides, the TGI in assay [12], in assay [13], in assay [14], in assay [15], in assay [16] and in assay [20] was more than 100 µM each time. Moreover, in assay [17], the TGI is more than 100 µM.

As for `C#CCCOC1(OC)N=NC(C)(C)O1` (centres undefined), the TGI in assay [18], in [1], in assay [3], in [4], in [5] and in assay [6] was more than 100 µM throughout. The TGI in assay [7], in assay [19], in assay [8], in assay [9], in [10] and in [11] was more than 100 µM each time. For the same compound, the TGI in assay [12], in [13], in assay [14], in assay [15], in assay [16] and in assay [20] was more than 100 µM each time. In assay [17], this compound gave a TGI of more than 100 µM.

On to `NC1=CC(C(=O)c2ccncc2)c2nc3ccccc3nc21` (centres undefined), for which the TGI in [18], in assay [1], in [2], in assay [3], in assay [4] and in assay [5] was more than 100 µM in each case. Besides, the TGI in [7], in assay [19], in [8], in assay [9], in assay [10] and in assay [11] was more than 100 µM throughout. Further, the TGI in [12], in assay [13], in assay [14], in assay [15], in [16] and in assay [20] was more than 100 µM throughout. Besides, the TGI in assay [17] is more than 100 µM.

(Values after PubChem BioAssay (NCI).)
